The text below walks through data of patent US9919055B2, “Sugar-linker-drug conjugates” (Arizona Board of Regents on Behalf of Arizona State …, priority 2013, dated 2018).

In test [1] the test system is MTX Resistant DU-145 Cells. Put plainly: In vitro cell growth inhibition test (MTT assay, cell viability). To be noted: 72 h incubation, DU-145-MTX cells. The format is cell-based, human. The protocol:
(§1) A methotrexate resistant cell line. DU 145(MTX) was developed from parental DU 145 cells by exposure to increasing concentrations (starting at 0.1 μM) of methotrexate over a period of 6 months. DU 145(MTX) was at least 250-fold less sensitive to methotrexate than parental cells.
The human prostate cancer cell lines DU-145 (ATCC) was cultured in MEM media with glutamine and supplemented with 10% fetal bovine serum, penicillin (100 U/mL) and streptomycin ([…]) in air enriched with 5% CO2 at 37° C.
Cell viability was determined using the MTT assay. Briefly, cells were seeded in 96-well plates at a density of 3000 cells per well in 0.1 mL MEM media supplemented with 10% fetal bovine serum, and test compounds were concomitantly added in a concentration range of 0.001-1000 μM. Dilutions were made using the culture medium from 1 mM stock solutions of the drugs in anhydrous DMSO. Controls were treated with an equivalent amount of solvent, diluted as above, to assess the absence of toxicity due to the solvent. After 72 h of incubation, 15 μL of 5 mg mL^−1 MTT dye (3-[4,5-dimethylthiazol-2-yl]-2,5-diphenyltetrazolium bromide, sigma) was added for 4 h at 37° C. Media was removed and the monolayer suspended in 0.15 mL of DMSO, after which the absorbance at 570 nm was measured using a microplate reader. The control value corresponding to untreated cells was defined as 100% and the viability of treated samples was expressed as a percentage of the control.

Another test concerns DU 145(MTX) cells. The test can be described thus: Sensitivity of methotrexate resistant cell line DU 145(MTX) versus parental DU 145 cells. The test is classed as cell-based, human. The protocol: as §1

Regarding `CN(Cc1cnc2nc(N)nc(N)c2n1)c1ccc(C(=O)N[C@@H](CCC(=O)O)C(=O)O)cc1` [Methotrexate (MTX), Methotrexate, reference compound], the “DU-145-MTX (% cell survival)” value stood at 82% in test [1] (100 nM test compound), 84% in test [1] (1 μM test compound) and 83% in test [1] (10 μM test compound). Further, the “fold less sensitive to methotrexate than parental cells” value with DU 145(MTX) cells is reported as “at least 250 fold”.
